Source: ChEMBL document CHEMBL2380199, “Ostreol A: a new cytotoxic compound isolated from the epiphytic dinoflagellate Ostreopsis cf. ovata from the coastal waters of Jeju Island, Korea” (Bioorg Med Chem Lett, 2013)
Converted amounts (≈) assume the structure as drawn.

Experiment: Toxicity in Artemia salina after 24 hrs
Type: organism-based
Conditions: in vivo, read-out: LD50

Row | Structure (SMILES) | LC50 at 24 h [µg/mL]
1 | C=CCC/C=C/CCCC/C=C/[C@@H](O)[C@H](O)[C@@H]1O[C@@H]([C@H](O)[C@H](O)C(=C)CC[C@@H](O)[C@H]2C[C@@H](O)[C@@H](O)[C@H]([C@@H](O)[C@H](O)/C=C(C)/C=C/CC(O)CC(O)CNC(=O)C(O)C(O)C/C=C\C(O)C(O)/C(C)=C/CCCC(O)/C=C/CC(O)/C=C/CC(O)CN)O2)C[C@@H](O)[C@H]1O (some centres not stated) | 0.9 (≈ 0.685 µM)
2 | CC1=C(O)[C@@](O)([C@@H]2C[C@H]3OC(=O)[C@H](C)[C@@H]4CCC[C@@]5(CC[C@H](O5)[C@H](O)[C@@]5(C)CC(=O)[C@H](O5)[C@H]5C[C@]6(C)CC[C@](O5)(O6)[C@H]5CC[C@](C)(C[C@@H](C)/C=C(C)/C=C/[C@H]3O2)O5)O4)OCC1 | 2.5 (≈ 2.92 µM)
